What is called IC50 is the concentration needed to halve the response being measured. Lower therefore signals greater potency.

For the assay, the target named is T1, human mPGES-1 (Homo sapiens, UniProt O14684).
T1 construct: host or cells: microsomes
T1 sequence (O14684 1-152): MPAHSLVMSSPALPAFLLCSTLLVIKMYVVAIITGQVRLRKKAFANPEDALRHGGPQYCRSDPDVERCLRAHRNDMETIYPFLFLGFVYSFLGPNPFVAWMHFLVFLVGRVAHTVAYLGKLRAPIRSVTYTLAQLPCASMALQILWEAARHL
Nature of the assay: Microsomal prostaglandin E synthase biochemical assay. As to conditions: microsome preparation containing human mPGES-1; substrate PGH2 10.8 μM, GSH 2.5 mM, pH 6.8; PGE2 by HTRF; average of at least n=2. Here is the method: Compounds were tested as inhibitors of microsomal prostaglandin E synthase activity in microsomal prostaglandin E synthase assays and whole cell assays. These assays measure prostaglandin E2 (PGE2) synthesis which is taken as a measure of prostaglandin E synthase activity. Microsomal prostaglandin E synthase biochemical assays used microsomal prostaglandin E synthase-1 in microsomal preparations. The source of the microsomes can be for example interleukin-1β-stimulated human A549 cells (which express human mPGES-1) or Sf9 cells transfected with plasmids encoding human mPGES-1 cDNA.
A solution of test compound was added to a diluted microsome preparation containing is human mPGES-1 and pre-incubated for 15 minutes in potassium phosphate buffer pH 6.8 with cofactor glutathione (GSH). Corresponding solutions without test compound were used as positive controls, and corresponding solutions without test compound and without microsomes were used as negative controls. The enzymatic reaction was then started by addition of the substrate PGH2 in an organic solution (dry acetonitrile).
The reaction was stopped after one minute by adding an acidic solution (pH 1.9) of ferric chloride and citrate (final concentrations 7 mM and 47 mM respectively), by which the PGH2 was sequestered (the PGH2 is reduced to mainly 12-hydroxy heptadecatrineoic acid (12-HHT) which is not detected by the subsequent PGE2 detection step). The resulting solution was then pH neutralized by addition of potassium phosphate buffer, prior to diluting an aliquot of the resulting solution in a weak potassium phosphate buffer (50 mM, pH 6.8) containing 0.2% BSA (w/v). […] The PGE2 formed was quantified by use of a commercial HTRF based kit (catalogue #62PG2PEC or #62P2APEC from Cisbio International). 100% activity was defined as the PGE2 production in positive controls subtracted by the PGE2 production in the negative controls. IC50 values were then determined using standard procedures.
For orientation: In TR-FRET formats the signal depends on donor and acceptor labels being close together.
As to `COc1ccc(S(=O)(=O)NC(=O)c2ccc(-c3cc4ccccc4o3)cc2)c(S(N)(=O)=O)c1` [Example 76, 4-methoxy-benzene-1,2-disulfonic acid 2-amide 1-(4-benzofuran-2-yl-benzoylamide)], it took 530 nM to reach half-maximal inhibition (IC50). This lies in the sub-micromolar range.

The molecule `CC(C)C#Cc1ccc(C(=O)NS(=O)(=O)c2ccccc2S(N)(=O)=O)cc1OCCC(F)F` [Example 71, 3-(3,3-Difluoropropoxy)-4-(3-methylbut-1-ynyl)-N-(2-sulfamoylphenylsulfonyl)benzamide] had an IC50 of 31 nM.

Molecule `CCCC(C)C#Cc1ccc(C(=O)NS(=O)(=O)c2ccccc2S(N)(=O)=O)cc1` (stereo not shown) [Example 40, 4-(3-Methylhex-1-ynyl)-N-(2-sulfamoylphenylsulfonyl)benzamide] came in with an IC50 of 14 nM.

In turn, `NS(=O)(=O)c1ccccc1S(=O)(=O)NC(=O)c1ccc(C#Cc2ccccc2)c(OCCOCC(F)(F)F)c1` [Example 63, 4-(Phenylethynyl)-N-(2-sulfamoylphenylsulfonyl)-3-(2-(2,2,2-trifluoroethoxy)ethoxy)benzamide] displayed an IC50 of 9.3 nM.

`CC(C)C#Cc1ccc(C(=O)NS(=O)(=O)c2ccccc2S(N)(=O)=O)cc1OCC(F)(F)F` [Example 53, 4-(3-Methylbut-1-ynyl)-N-(2-sulfamoylphenylsulfonyl)-3-(2,2,2-trifluoroethoxy)benzamide] registered an IC50 of 25 nM.

On to `CC(C)(C)C#Cc1ccc(C(=O)NS(=O)(=O)c2ccccc2S(N)(=O)=O)cc1OCC1CC1` [Example 22, 3-(Cyclopropylmethoxy)-4-(3,3-dimethylbut-1-ynyl)-N-(2-sulfamoylphenylsulfonyl)benzamide], for which the concentration for half-maximal inhibition (IC50) turned out to be 13 nM.

As for `CCCC(C)C#Cc1ccc(C(=O)NS(=O)(=O)c2ccccc2S(N)(=O)=O)cc1OCCC(F)(F)F` (stereo not shown) [Example 35, 4-(3-Methylhex-1-ynyl)-N-(2-sulfamoylphenylsulfonyl)-3-(3,3,3-trifluoropropoxy)benzamide], the IC50 turned out to be 14 nM.

`COc1cc(C(=O)NS(=O)(=O)c2ccccc2S(N)(=O)=O)ccc1OCc1ccc(C)cc1` [Example 29, 3-Methoxy-4-(4-methylbenzyloxy)-N-(2-sulfamoylphenylsulfonyl)benzamide] displayed an IC50 of 390 nM. Compared with the last molecule, the IC50 is about 28-fold higher.

Molecule `CC(C)C#Cc1ccc(C(=O)NS(=O)(=O)c2ccccc2S(N)(=O)=O)cc1COCCC(F)(F)F` [Example 55, 4-(3-Methylbut-1-ynyl)-N-(2-sulfamoylphenylsulfonyl)-3-((3,3,3-trifluoropropoxy)methyl)benzamide] yielded an IC50 of 80 nM. This IC50 is about 4.9-fold lower than that of the molecule before.

On to `NS(=O)(=O)c1ccccc1S(=O)(=O)NC(=O)c1ccc(C#CC(C2CC2)C2CC2)c(OCCC(F)(F)F)c1` [Example 36, 4-(3,3-Dicyclopropylprop-1-ynyl)-N-(2-sulfamoylphenylsulfonyl)-3-(3,3,3-trifluoropropoxy)benzamide], for which half-maximal inhibition (IC50) was put at 18 nM.

The molecule `COc1cc(C(=O)NS(=O)(=O)c2ccccc2S(N)(=O)=O)ccc1C#Cc1ccc(C(F)(F)F)cc1` [Example 38, 3-Methoxy-N-(2-sulfamoylphenylsulfonyl)-4-((4-(trifluoromethyl)phenyl)ethynyl)benzamide] showed an IC50 of 7.3 nM.

The molecule `NS(=O)(=O)c1ccccc1S(=O)(=O)NC(=O)c1ccc(C#Cc2cccc(F)c2)cc1` [Example 13, 4-((3-Fluorophenyl)ethynyl)-N-(2-sulfamoylphenylsulfonyl)benzamide] showed a half-maximal inhibitory concentration (IC50) of 5.7 nM. The IC50 values of the last two molecules are within 1.5-fold of each other.

Turning to `NS(=O)(=O)c1ccccc1S(=O)(=O)NC(=O)c1ccc(C#Cc2ccc(Cl)cc2)cc1` [Example 10, 4-((4-Chlorophenyl)ethynyl)-N-(2-sulfamoylphenylsulfonyl)benzamide], the IC50 is 3.7 nM.

Consider `CCCC(C)C#Cc1ccc(C(=O)NS(=O)(=O)c2ccccc2S(N)(=O)=O)cc1OCCOCC(F)(F)F` (stereo not shown) [Example 34, 4-(3-Methylhex-1-ynyl)-N-(2-sulfamoylphenylsulfonyl)-3-(2-(2,2,2-trifluoroethoxy)ethoxy)benzamide], for which the midpoint of inhibition, the IC50, lay at 12 nM.

In the case of `CC(C)C#Cc1ccc(C(=O)NS(=O)(=O)c2ccccc2S(N)(=O)=O)cc1OCCC(C)(C)O` [Example 25, 3-(3-Hydroxy-3-methylbutoxy)-4-(3-methylbut-1-ynyl)-N-(2-sulfamoylphenylsulfonyl)benzamide], the IC50 is 130 nM. Against the preceding molecule, the IC50 is about 11-fold higher.

Consider `CC(C)(C)C#Cc1ccc(C(=O)NS(=O)(=O)c2ccccc2S(N)(=O)=O)cc1OCCOCC(F)(F)F` [Example 61, 4-(3,3-Dimethylbut-1-ynyl)-N-(2-sulfamoylphenylsulfonyl)-3-(2-(2,2,2-trifluoroethoxy)ethoxy)benzamide], for which half-maximal inhibition (IC50) required 27 nM.

As for `NS(=O)(=O)c1ccccc1S(=O)(=O)NC(=O)c1ccc(C#Cc2ccccc2)c(OCC(F)F)c1` [Example 3, 3-(2,2-Difluoroethoxy)-4-(phenylethynyl)-N-(2-sulfamoylphenylsulfonyl)benzamide], the IC50 came out at 8.2 nM.

Turning to `NS(=O)(=O)c1ccccc1S(=O)(=O)NC(=O)c1ccc(C#Cc2cccc(Cl)c2)cc1` [Example 12, 4-((3-Chlorophenyl)ethynyl)-N-(2-sulfamoylphenylsulfonyl)benzamide], the 50% inhibitory concentration (IC50) was determined as 4.4 nM.

In the case of `NS(=O)(=O)c1cc(O)ccc1S(=O)(=O)NC(=O)c1ccc(-c2cc3ccccc3o2)cc1` [Example 75, 4-Hydroxy-benzene-1,2-disulfonic acid 2-amide 1-(4-benzofuran-2-yl-benzoylamide)], the midpoint of inhibition, the IC50, lay at 26 nM.

Turning to `COC(C)(C)CCOc1cc(C(=O)NS(=O)(=O)c2ccccc2S(N)(=O)=O)ccc1C#CC1CC1` [Example 27, 4-(Cyclopropylethynyl)-3-(3-methoxy-3-methylbutoxy)-N-(2-sulfamoylphenylsulfonyl)benzamide], the IC50 amounted to 85 nM.

In the case of `CC(C)C#Cc1ccc(C(=O)NS(=O)(=O)c2ccccc2S(N)(=O)=O)cc1OCC1CC1` [Example 23, 3-(Cyclopropylmethoxy)-4-(3-methylbut-1-ynyl)-N-(2-sulfamoylphenylsulfonyl)benzamide], the IC50 is 34 nM.

For the molecule `CC(C)C#Cc1ccc(C(=O)NS(=O)(=O)c2ccccc2S(N)(=O)=O)cc1OC(F)(F)F` [Example 54, 4-(3-Methylbut-1-ynyl)-N-(2-sulfamoylphenylsulfonyl)-3-(trifluoromethoxy)benzamide], half-maximal inhibition (IC50) was put at 28 nM. This IC50 and that of the molecule before are within 1.5-fold of each other.

In turn, `COc1cc(C(=O)NS(=O)(=O)c2ccccc2S(N)(=O)=O)ccc1C#Cc1ccc(Cl)cc1` [Example 15, 4-((4-Chlorophenyl)ethynyl)-3-methoxy-N-(2-sulfamoylphenylsulfonyl)benzamide] displayed an IC50 of 8.4 nM. Against the preceding molecule, the IC50 is about 3.3-fold lower.

Molecule `COc1cc(C(=O)NS(=O)(=O)c2ccccc2S(N)(=O)=O)ccc1C#Cc1ccc(F)cc1` [Example 16, 4-((4-Fluorophenyl)ethynyl)-3-methoxy-N-(2-sulfamoylphenylsulfonyl)benzamide] registered an IC50 of 16 nM. Against the preceding molecule, the IC50 is about 1.9-fold higher.

For the molecule `NS(=O)(=O)c1ccccc1S(=O)(=O)NC(=O)c1cnc(C#Cc2ccc(C(F)(F)F)cc2)c(F)c1` [Example 47, 5-Fluoro-N-(2-sulfamoylphenylsulfonyl)-6-((4-(trifluoromethyl)phenyl)ethynyl)nicotinamide], the concentration for half-maximal inhibition (IC50) was 6.5 nM.

`NS(=O)(=O)c1ccccc1S(=O)(=O)NC(=O)c1ccc(C#CCCCCCl)cc1` [Example 42, 4-(6-Chlorohex-1-ynyl)-N-(2-sulfamoylphenylsulfonyl)benzamide] yielded an IC50 of 37 nM.

Molecule `CC(C)C#Cc1ncc(C(=O)NS(=O)(=O)c2ccccc2S(N)(=O)=O)cc1OCCC(F)(F)F` [Example 49, 6-(3-Methylbut-1-ynyl)-N-(2-sulfamoylphenylsulfonyl)-5-(3,3,3-trifluoropropoxy)nicotinamide] came in with an IC50 of 13 nM. This IC50 lies about 2.8-fold lower than the previous one.

`CCCC(C)C#Cc1ccc(C(=O)NS(=O)(=O)c2ccccc2S(N)(=O)=O)cc1OC` (stereo not shown) [Example 37, 3-Methoxy-4-(3-methylhex-1-ynyl)-N-(2-sulfamoylphenylsulfonyl)benzamide] displayed an IC50 of 35 nM.

`Cc1ccc(C#Cc2ccc(C(=O)NS(=O)(=O)c3ccccc3S(N)(=O)=O)cc2OCCC(F)F)cc1` [Example 70, 3-(3,3-Difluoropropoxy)-N-(2-sulfamoylphenylsulfonyl)-4-(p-tolylethynyl)benzamide] returned an IC50 of 7.8 nM.

In turn, `NS(=O)(=O)c1ccccc1S(=O)(=O)NC(=O)c1ccc(-c2cc3ccccc3o2)c(OCCC(F)(F)F)c1` [Example 59, 4-(Benzofuran-2-yl)-N-(2-sulfamoylphenylsulfonyl)-3-(3,3,3-trifluoropropoxy)benzamide] yielded a half-inhibitory concentration (IC50) of 8.5 nM.

The molecule `NS(=O)(=O)c1ccccc1S(=O)(=O)NC(=O)c1ccc(-c2cc3ccccc3o2)c(OCCOCC(F)(F)F)c1` [Example 62, 4-(Benzofuran-2-yl)-N-(2-sulfamoylphenylsulfonyl)-3-(2-(2,2,2-trifluoroethoxy)ethoxy)benzamide] displayed an IC50 of 9.1 nM.

For the origin of these results see patent publication US20100292279A1, “Bis-(Sulfonylamino) Derivatives in Therapy” (ASTRAZENECA AB, priority 2009, published 2010).
